Assay results from patent US20240279220A1, “INDOLE COMPOUNDS AND METHODS OF USE” (Genzyme Corporation, priority 2021, published 2024).

The compounds below were run on NBD1/3D (assay: Aggregation analysis using differential static light scattering (DSLS), NBD1 thermal stability). Conditions: ΔTagg versus DMSO control; compound at 100 μM.
Type: binding, Human
How it was run: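 Purified NBD1 at 0.2 mg/ml in S200 buffer (pH 7.6, 2 mM ATP, 5 mM MgCl2, 1% glycerol) was heated with compound at 1 °C/min to 70 °C. Tagg taken from the light-scattering curve inflection point; ΔTagg = compound Tagg minus mean DMSO control Tagg.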

SMILES	DSLS NBD1/3D Human Stability delta-T (° C.) @ 100 (μM)
Cc1c(Oc2cccc(-c3nnc(Cc4cccc([C@@H]5C[C@H]5C(=O)O)c4)[nH]3)c2)ccc2[nH]ccc12 (racemic) [Example 243, rac-(1R,2R)-2-(3-((5-(3-((4-Methyl-1H-indol-5-yl)oxy)phenyl)-4H-1,2,4-triazol-3-yl)methyl)phenyl)cyclopropane-1-carboxylic acid]	B (B: 5-10° C.)
CO[C@]1(C)C[C@](c2cc(F)cc(CCC(=O)O)c2)(c2cnc(-c3cc(Oc4c(F)cc5[nH]ccc5c4S(C)(=O)=O)ccc3F)[nH]2)C1 [Example 73, 3-(3-fluoro-5-((1s,3s)-1-(2-(2-fluoro-5-((6-fluoro-4-(methylsulfonyl)-1H-indol-5-yl)oxy)phenyl)-1H-imidazol-5-yl)-3-methoxy-3-methylcyclobutyl)-phenyl)propanoic acid]	A (A: T ≥ 10° C.)
Cc1c(Oc2ccc(F)c(-c3nnc(Cc4cccc5c4CC(C(=O)O)C5)[nH]3)c2)c(F)cc2[nH]ccc12 (stereo not shown) [Example 244, 4-((5-(2-Fluoro-5-((6-fluoro-4-methyl-1H-indol-5-yl)oxy)phenyl)-4H-1,2,4-triazol-3-yl)methyl)-2,3-dihydro-1H-indene-2-carboxylic acid]	C (C: ≤5° C.)
O=C(O)CCc1cccc(C2(c3cnc(-c4cc(Oc5c(F)cc6[nH]ccc6c5F)ccc4F)[nH]3)OCCO2)c1 [Example 229, 3-(3-(2-(2-(5-((4,6-difluoro-1H-indol-5-yl)oxy)-2-fluorophenyl)-1H-imidazol-5-yl)-1,3-dioxolan-2-yl)phenyl)propanoic acid]	A (A: T ≥ 10° C.)
CC(C#N)(c1cccc(CCC(=O)O)c1)c1c[nH]c(-c2cc(Oc3c(F)cc4[nH]ccc4c3S(C)(=O)=O)ccc2F)n1 (stereo not shown) [Example 48, 3-(3-(1-Cyano-1-(2-(2-fluoro-5-((6-fluoro-4-(methylsulfonyl)-1H-indol-5-yl)oxy)phenyl)-1H-imidazol-4-yl)ethyl)phenyl)propanoic acid]	A (A: T ≥ 10° C.)
Cc1c(Oc2ccc(F)c(-c3ncc(C(C)c4cccc([C@@H]5C[C@@H]5C(=O)O)c4F)[nH]3)c2)c(F)cc2[nH]ccc12 (single isomer, unassigned) [Example 138C, cis-2-(2-fluoro-3-(1-(2-(2-fluoro-5-((6-fluoro-4-methyl-1H-indol-5-yl)oxy)phenyl)-1H-imidazol-5-yl)ethyl)phenyl)cyclopropane-1-carboxylic acid]	C (C: ≤5° C.)
Cc1c(Oc2ccc(F)c(-c3ccn(Cc4cccc(CCC(N)=O)c4)n3)c2)c(F)cc2[nH]ccc12 [Example 17, 3-(3-((3-(2-Fluoro-5-((6-fluoro-4-methyl-1H-indol-5-yl)oxy)phenyl)-1H-pyrazol-1-yl)methyl)phenyl)propanamide]	C (C: ≤5° C.)
CC(Cc1cccc(C(C)c2cnc(-c3cc(Oc4c(F)cc5[nH]ccc5c4F)ccc3F)[nH]2)c1F)C(=O)O (single isomer, unassigned) [Example 137B, 3-(3-(1-(2-(5-((4,6-difluoro-1H-indol-5-yl)oxy)-2-fluorophenyl)-1H-imidazol-5-yl)ethyl)-2-fluorophenyl)-2-methylpropanoic acid]	B (B: 5-10° C.)
CS(=O)(=O)c1c(Oc2ccc(F)c(-c3ncc(Cc4cccc(CCC(N)=O)c4)[nH]3)c2)c(F)cc2[nH]ccc12 [Example 24, 3-(3-((2-(2-Fluoro-5-((6-fluoro-4-(methylsulfonyl)-1H-indol-5-yl)oxy)phenyl)-1H-imidazol-5-yl)methyl)phenyl)propanamide]	B (B: 5-10° C.)
CC(O)(c1cccc(CCC(=O)O)c1)c1cnc(-c2cc(Oc3c(F)cc4[nH]ccc4c3S(C)(=O)=O)ccc2F)[nH]1 (stereo not shown) [Example 26, 3-(3-(1-(2-(2-Fluoro-5-((6-fluoro-4-(methylsulfonyl)-1H-indol-5-yl)oxy)phenyl)-1H-imidazol-5-yl)-1-hydroxyethyl)phenyl)propanoic acid]	A (A: T ≥ 10° C.)
COC(=O)/C=C/c1cccc(Cn2ccc(-c3cccc(Oc4ccc5[nH]ccc5c4CO)c3)n2)c1 [Example 7, Methyl (E)-3-(3-((3-(3-((4-(hydroxymethyl)-1H-indol-5-yl)oxy)phenyl)-1H-pyrazol-1-yl)methyl)phenyl)acrylate]	C (C: ≤5° C.)
CC(O)(c1cccc(CCC(=O)O)c1)c1csc(-c2cccc(Oc3c(F)cc4[nH]ccc4c3P(C)(C)=O)c2)n1 (stereo not shown) [Example 98, 3-(3-(1-(2-(3-((4-(Dimethylphosphoryl)-6-fluoro-1H-indol-5-yl)oxy)phenyl)thiazol-4-yl)-1-hydroxyethyl)phenyl)propanoic acid]	B (B: 5-10° C.)
CS(=O)(=O)c1c(Oc2ccc(F)c(-c3ncc(C4(c5cccc(CCC(=O)O)c5)CCC4)[nH]3)c2)c(F)cc2[nH]ccc12 [Example 46, 3-(3-(1-(2-(2-fluoro-5-((6-fluoro-4-(methylsulfonyl)-1H-indol-5-yl)oxy)phenyl)-1H-imidazol-5-yl)cyclobutyl)phenyl)propanoic acid]	A (A: T ≥ 10° C.)
Cc1c(Oc2ccc(F)c(-c3nc(C(C)(C)c4cccc(CCC(=O)O)c4F)c[nH]3)c2)c(F)c(F)c2[nH]ccc12 [Example 158, 3-(3-(2-(2-(5-((6,7-difluoro-4-methyl-1H-indol-5-yl)oxy)-2-fluorophenyl)-1H-imidazol-4-yl)propan-2-yl)-2-fluorophenyl)propanoic acid]	B (B: 5-10° C.)
CO[C@]1(C)C[C@@](c2cc(F)cc(CCC(=O)O)c2)(c2c[nH]c(-c3cc(Oc4c(F)cc5[nH]ccc5c4S(C)(=O)=O)ccc3F)n2)C1 [Example 72, 3-(3-Fluoro-5-((1r,3r)-1-(2-(2-fluoro-5-((6-fluoro-4-(methylsulfonyl)-1H-indol-5-yl)oxy)phenyl)-1H-imidazol-5-yl)-3-methoxy-3-methylcyclobutyl)phenyl)propanoic acid]	A (A: T ≥ 10° C.)
C[S+]([O-])c1c(Oc2cccc(-c3nc(Cc4cccc(CCC(=O)O)c4)cs3)c2)c(F)cc2[nH]ccc12 (stereo not shown) [Example 36, 3-(3-((2-(3-((6-Fluoro-4-(methylsulfinyl)-1H-indol-5-yl)oxy)phenyl)thiazol-4-yl)methyl)phenyl)propanoic acid]	B (B: 5-10° C.)
O=C(O)CCc1cccc(Cc2cnc(-c3cc(Oc4c(F)cc5[nH]ccc5c4F)ccc3F)[nH]2)c1F [Example 100, 3-(3-((2-(5-((4,6-Difluoro-1H-indol-5-yl)oxy)-2-fluorophenyl)-1H-imidazol-5-yl)methyl)-2-fluorophenyl)propanoic acid]	B (B: 5-10° C.)
O=C(O)CCc1cccc(Cc2c[nH]c(-c3cc(Oc4c(F)cc5[nH]ccc5c4CC(F)F)ccc3F)n2)c1 [Example 117, 3-(3-((2-(5-((4-(2,2-difluoroethyl)-6-fluoro-1H-indol-5-yl)oxy)-2-fluorophenyl)-1H-imidazol-4-yl)methyl)phenyl)propanoic acid]	B (B: 5-10° C.)
CC(O)(c1cccc(CCC(=O)O)c1)c1csc(-c2cc(Oc3c(F)cc4[nH]ccc4c3S(C)(=O)=O)ccc2F)n1 (stereo not shown) [Example 88, 3-(3-(1-(2-(2-Fluoro-5-((6-fluoro-4-(methylsulfonyl)-1H-indol-5-yl)oxy)phenyl)thiazol-4-yl)-1-hydroxyethyl)phenyl)propanoic acid]	B (B: 5-10° C.)
Cc1c(Oc2ccc(F)c(-c3nnc(Cc4cccc(C5CC(C(=O)O)C5)c4)[nH]3)c2)c(F)cc2[nH]ccc12 (stereo not shown) [Example 247, 3-(3-((5-(2-Fluoro-5-((6-fluoro-4-methyl-1H-indol-5-yl)oxy)phenyl)-4H-1,2,4-triazol-3-yl)methyl)phenyl)cyclobutane-1-carboxylic acid]	B (B: 5-10° C.)
CS(=O)(=O)c1c(Oc2ccc(F)c(-c3nc(C4(c5cccc(CCC(=O)O)c5)CC4)co3)c2)c(F)cc2[nH]ccc12 [Example 81, 3-(3-(1-(2-(2-Fluoro-5-((6-fluoro-4-(methylsulfonyl)-1H-indol-5-yl)oxy)phenyl)oxazol-4-yl)cyclopropyl)phenyl)propanoic acid]	B (B: 5-10° C.)
O=C(O)CCCCCCc1ccc(Cc2nnc(-c3cccc(Oc4ccc5[nH]ccc5c4)c3)[nH]2)cc1 [Example 254, 7-(4-((5-(3-((1H-Indol-5-yl)oxy)phenyl)-4H-1,2,4-triazol-3-yl)methyl)phenyl)heptanoic acid]	C (C: ≤5° C.)
Cc1c(Oc2ccc(F)c(-c3ncc(C(C)c4cccc(CCC(=O)O)c4)[nH]3)c2)c(F)cc2[nH]ccc12 (stereo not shown) [Example 213, 3-(3-(1-(2-(2-Fluoro-5-((6-fluoro-4-methyl-1H-indol-5-yl)oxy)phenyl)-1H-imidazol-5-yl)ethyl)phenyl)propanoic acid]	B (B: 5-10° C.)
CC(=O)NCc1c(Oc2cccc(-c3ncc(C(O)c4cccc(CCC(=O)O)c4)[nH]3)c2)ccc2[nH]ccc12 (stereo not shown) [Example 262, 3-(3-((2-(3-((4-(Acetamidomethyl)-1H-indol-5-yl)oxy)phenyl)-1H-imidazol-5-yl)(hydroxy)methyl)phenyl)propanoic acid]	A (A: T ≥ 10° C.)
Cc1c(Oc2ccc(F)c(-c3ncc(Cc4cccc(CC(=O)O)n4)[nH]3)c2)c(F)cc2[nH]ccc12 [Example 91, 2-(6-((2-(2-fluoro-5-((6-fluoro-4-methyl-1H-indol-5-yl)oxy)phenyl)-1H-imidazol-5-yl)methyl)pyridin-2-yl)acetic acid]	B (B: 5-10° C.)
